The results in this text go back to patent publication US20260258473A1, “FLUORESCENT PROBE FOR DETECTION OF ENPP ACTIVITY” (THE UNIVERSITY OF TOKYO, priority 2019, published 2026).

This assay has as its target ENPP2 (Homo sapiens, UniProt Q13822). In words: Measurement of plasma sample using a plate reader (ENPP probe fluorescence with and without serum). Type of assay: biochemical. The note with it: compound at 10 μmol/L, ENPP2 at 25 μg/mL, human serum diluted by 10 times vs no serum, multi-well plate, Tris-HCl pH 8.3. The method, then:
First, compounds (4) was diluted to 10 μmol/L with an assay buffer. The assay buffer has the composition of Tris-HCl buffer solution (pH 8.3), magnesium chloride at 1.0 mmol/L and 0.5% CHAPS. Subsequently, ENPP2 at 25 μg/mL and human serum diluted by 10 times were added, and the mixture was dispensed into a multi-well plate. Subsequently, the fluorescence intensity was measured with a plate reader. […] On the other hand, as described above, the measurement method using a microdevice enabled the activity of ENPP to be adequately measured even in the presence of serum.

Structures are written as SMILES.

On to `COc1cc(OC)c(S(=O)(=O)O)cc1-c1c2ccc(=O)cc-2oc2cc(OCOP(=O)(O)OCC3OC(n4cc(C)c(=O)[nH]c4=O)CC3O)ccc12` (stereo not shown) [Compound (4)], for which the “measured intensity of the activity of ENPP (fluorescence intensity)” value is given as “lower when serum was present than when serum was not present”.
